Consider ten molecules from article PMC8151276, “An Integrated Approach toward NanoBRET Tracers for Analysis of GPCR Ligand Engagement” (Molecules, 2021).

Type in all cases: binding
In one assay the target is T1, DRD5 (Homo sapiens, UniProt P21918).
T1 construct: purchased Promega (in-house HiBiT-GPCR construct library, NanoBRET)
Nature of the assay: NanoBRET screen HiBiT-DRD5 in HEK293. Here is the method:
(§1) Each tracer candidate was screened across the entire library of HiBiT-GPCR constructs using NanoBRET as the detection modality. As depicted in Figure 4A, the specificity of interactions was evaluated through decrease in BRET due to competitive displacement of a bound tracer by excess parental compound. Each tracer was analyzed for binding to each HiBiT-GPCR fusion in the absence and in the presence of competing parental compound. Briefly, HEK293 cells were transfected with HiBiT-GPCR constructs diluted into promoterless DNA to reduce expression and maximize translocation to the cell surface. Each tracer candidate was then screened at concentrations of 1 μM and 0.1 μM across cells expressing these fusions. Cells were treated for 1.5 h with tracer either alone or in the presence of 20 μM competing parental compound (i.e., control). BRET was measured upon addition of purified LgBiT and subsequent complementation with HiBiT genetically fused to a GPCR. The specificity of interactions was assessed through a decrease in BRET signal due to competitive displacement of the bound tracer. To further gauge the robustness of these interactions, the fold response over the control (i.e., BRETtracer/BRETcontrol) was calculated. We chose a 1.5-fold response, which translates to ≥7-fold signal over noise as the minimal threshold required to score an interaction as positive. […]. Below we highlight the screening results obtained for our exemplary fluorescent tracers based on Clozapine, Amitriptyline and AZD1283.
(§2) HiBiT-GPCR DNA constructs were diluted in 10 mM Tris pH 8 to a final concentration of 0.01 μg/μL, arrayed in 96-well plates and stored at −20 °C. For transfection, HEK293 cells were suspended in Opti-MEM (without phenol red) supplemented with 2% fetal bovine serum (Seradigm) and 100 units/mL penicillin–streptomycin (Gibco) at a final concentration of 220,000 cells/mL and dispensed into white 96-well plates at 90 μL/well. Subsequent transfections and screens were carried using an Agilent Bravo Automated Liquid Handling Platform. First, the 96-well HiBiT DNA arrays were diluted 25-fold in Opti-MEM (without serum or phenol red) to a final concentration of 0.0004 μg/μL and 20 μL of the diluted DNAs were transferred into new 96-well plates. Next, promoterless carrier DNA (1 μg/μL) was diluted 25-fold (0.04 μg/μL) and then dispensed into the diluted arrays at 20 μL/well. Following brief mixing, Viafect transfection reagent (Promega) diluted 16-fold into Opti-MEM was dispensed into the plates at 40 μL/well. After mixing by pipetting, plates were incubated for 10 min on the pipetting station deck. The DNA-transfection reagent complexes were then added to plates containing cells. To facilitate the screen, 10 μL of DNA-transfection reagent complexes were added in duplicates to the top 4 and bottom 4 rows, resulting in two identical 48-well arrays per plate. Plates with transfected cells were incubated for 18–20 h at 37 °C/5% CO2. A screen of each tracer across the entire library using two different concentrations requires duplicate plates of transfected cells. Depending on the number of tracers being screened, transfections can be scaled up using the same ratios. The next day, for each tracer, four 20× screening solutions in tracer dilution buffer (Promega) were prepared: two duplicates at final concentration of 20 μM and two duplicates at a final concentration of 2 μM. A competing unmodified compound was added to one of each duplicate at a final concentration of 400 μM. The four resulting solutions were diluted 4-fold in Opti-MEM without serum or phenol red to generate 5× solutions (5 µM and 0.5 µM tracer +/− 100 μM competing compound). To screen the library, a BioTek MultiFlo FX liquid dispenser was used to dispense 22.5 µL of tracer solution to the top 4 rows and 22.5 µL tracer + competing compound solution to the 4 bottom rows. Plates were briefly mixed on an orbital shaker and incubated for 1.5 h at room temperature. […]

A further assay addresses T2, FZD7 (Homo sapiens, UniProt O75084).
T2 construct: purchased Promega (in-house HiBiT-GPCR construct library, NanoBRET)
The assay is described as follows: NanoBRET screen HiBiT-FZD7 in HEK293. On the procedure: as §1, §2
In general terms: BRET reads energy transfer from a luciferase to a nearby fluorophore.

A further assay concerns the target T3, FSHR (Homo sapiens, UniProt P23945).
T3 construct: purchased Promega (in-house HiBiT-GPCR construct library, NanoBRET)
T3 sequence (P23945 18-695): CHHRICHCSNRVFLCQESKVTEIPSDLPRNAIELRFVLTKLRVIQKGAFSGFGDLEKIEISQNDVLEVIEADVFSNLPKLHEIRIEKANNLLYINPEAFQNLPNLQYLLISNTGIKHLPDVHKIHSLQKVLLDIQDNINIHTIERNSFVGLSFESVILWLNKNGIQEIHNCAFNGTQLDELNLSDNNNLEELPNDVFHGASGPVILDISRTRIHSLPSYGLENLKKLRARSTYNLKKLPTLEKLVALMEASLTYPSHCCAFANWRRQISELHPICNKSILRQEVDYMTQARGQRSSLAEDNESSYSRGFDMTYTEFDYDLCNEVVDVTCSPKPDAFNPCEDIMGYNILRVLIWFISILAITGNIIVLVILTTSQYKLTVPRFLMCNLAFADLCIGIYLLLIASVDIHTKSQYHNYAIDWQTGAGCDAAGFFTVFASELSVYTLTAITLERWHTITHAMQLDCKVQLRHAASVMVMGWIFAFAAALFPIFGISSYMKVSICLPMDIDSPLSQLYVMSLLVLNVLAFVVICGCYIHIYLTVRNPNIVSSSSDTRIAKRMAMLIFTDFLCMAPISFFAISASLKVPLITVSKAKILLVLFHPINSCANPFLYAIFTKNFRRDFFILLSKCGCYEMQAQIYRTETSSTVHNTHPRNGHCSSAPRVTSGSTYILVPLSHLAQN
The assay is described as follows: NanoBRET screen HiBiT-FSHR in HEK293. Here is the method: as §1, §2

A further assay concerns the target T4, RXFP4 (Homo sapiens, UniProt Q8TDU9).
T4 construct: purchased Promega (in-house HiBiT-GPCR construct library, NanoBRET)
The assay is described as follows: NanoBRET screen HiBiT-RXFP4 in HEK293. Here is the method: as §1, §2

T4 sequence (Q8TDU9 whole entry): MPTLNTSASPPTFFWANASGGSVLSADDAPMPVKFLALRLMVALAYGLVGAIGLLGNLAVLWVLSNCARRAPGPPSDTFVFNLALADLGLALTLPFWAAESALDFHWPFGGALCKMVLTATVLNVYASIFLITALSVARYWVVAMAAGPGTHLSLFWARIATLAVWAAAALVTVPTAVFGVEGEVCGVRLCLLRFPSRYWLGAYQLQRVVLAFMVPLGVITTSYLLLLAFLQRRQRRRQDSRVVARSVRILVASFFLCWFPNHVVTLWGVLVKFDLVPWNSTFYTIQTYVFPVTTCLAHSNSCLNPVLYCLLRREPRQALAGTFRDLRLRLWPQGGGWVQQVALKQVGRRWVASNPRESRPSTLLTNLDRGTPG
T1 sequence (P21918 whole entry): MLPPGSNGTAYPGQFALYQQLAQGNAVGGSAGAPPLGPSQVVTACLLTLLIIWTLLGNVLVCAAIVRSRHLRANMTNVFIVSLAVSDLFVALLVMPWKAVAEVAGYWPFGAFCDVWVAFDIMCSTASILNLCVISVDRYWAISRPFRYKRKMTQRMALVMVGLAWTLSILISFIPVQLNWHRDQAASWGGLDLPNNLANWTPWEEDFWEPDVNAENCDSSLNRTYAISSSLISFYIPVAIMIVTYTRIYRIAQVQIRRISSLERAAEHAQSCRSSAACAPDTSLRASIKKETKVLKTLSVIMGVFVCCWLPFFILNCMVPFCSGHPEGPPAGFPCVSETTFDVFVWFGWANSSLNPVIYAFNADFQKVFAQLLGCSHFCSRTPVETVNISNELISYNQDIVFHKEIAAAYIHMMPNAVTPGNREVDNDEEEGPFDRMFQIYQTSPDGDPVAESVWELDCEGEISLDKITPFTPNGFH

In the case of `O=C(CCc1ccc2n1[B-](F)(F)[N+]1=C(c3ccc[nH]3)C=CC1=C2)NCc1ccc(C(=O)NCCOCCC(=O)N[C@@H]2CC[C@@]3(O)[C@H]4Cc5ccc(O)c6c5[C@@]3(CCN4CC3CC3)[C@H]2O6)cc1` [Naltrexone-3-NB590], the “NanoBRET Fold Response” value on DRD5 (DRD5, tracer 0.1μM) is reported as 1.25; on DRD5 (DRD5, tracer 1μM), 1.07; on FZD7 (FZD7, tracer 0.1μM), 1.32; at FZD7 (FZD7, tracer 1μM) it was 1.27; at FSHR (FSHR, tracer 0.1μM), 0.98; at FSHR (FSHR, tracer 1μM) it was 1.07. Besides, the “NanoBRET Fold Response” value came out at 0.98 at RXFP4 (RXFP4, tracer 0.1μM) and 0.98 on RXFP4 (RXFP4, tracer 1μM).
For `CCOC(=O)c1cc(C#N)c(N2CCC(C(=O)NS(=O)(=O)Cc3ccccc3/C=C/C(=O)NCCNC(=O)CCc3ccc4n3[B-](F)(F)[N+]3=C(c5ccc[nH]5)C=CC3=C4)CC2)nc1C` [AZD1283-1-NB590], the “NanoBRET Fold Response” value on DRD5 (DRD5, 0.1μM) was 1.02; on DRD5 (DRD5, 1μM), 1.13; on FZD7 (FZD7, 0.1μM), 1.03; at FZD7 (FZD7, 1μM), 1.04; at FSHR (FSHR, 0.1μM), 0.99; at FSHR (FSHR, 1μM), 1.03. Besides, the “NanoBRET Fold Response” value at RXFP4 (RXFP4, 0.1μM) came out at 1.02; on RXFP4 (RXFP4, 1μM), 1.09.
Turning to `COc1ccc2[nH]c(-c3ccc(CNC(=O)CCOCCOCCOCCOCCNC(=O)CCc4ccc5n4[B-](F)(F)[N+]4=C(c6ccc[nH]6)C=CC4=C5)cc3)c(CCNC(C)=O)c2n1` [AzomelatoninICO9-2-NB590], the “NanoBRET Fold Response” value on DRD5 (0.1μM tracer) is given as 1.14; on DRD5 (1μM tracer) it was 0.93; at FZD7 (0.1μM tracer), 1.29; at FZD7 (1μM tracer), 0.84; on FSHR (0.1μM tracer), 1.32; at FSHR (1μM tracer), 1.02. The “NanoBRET Fold Response” value at RXFP4 (0.1μM tracer) was 0.94; on RXFP4 (1μM tracer) it was 0.96.
As for `CC(C)N(CC[C@H](c1ccccc1)c1cc(CCNC(=O)CCOCCOCCOCCOCCNC(=O)CCc2ccc3n2[B-](F)(F)[N+]2=C(c4ccc[nH]4)C=CC2=C3)ccc1O)C(C)C` [Tolterodine-2-NB590], the “NanoBRET Fold Response” value on DRD5 (DRD5, tracer 0.1μM) turned out to be 1.01; on DRD5 (DRD5, tracer 1μM), 1.04; at FZD7 (FZD7, tracer 0.1μM), 1.00; at FZD7 (FZD7, tracer 1μM), 1.12; at FSHR (FSHR, tracer 0.1μM) it was 0.78; on FSHR (FSHR, tracer 1μM), 1.08. In addition, the “NanoBRET Fold Response” value on RXFP4 (RXFP4, tracer 0.1μM) is listed as 0.96; on RXFP4 (RXFP4, tracer 1μM), 1.06.
Take `CN1CCN(C2=Nc3cc(Cl)ccc3N(CC(=O)NCCOCCOCCOCCOCCNC(=O)CCc3ccc4n3[B-](F)(F)[N+]3=C(c5ccc[nH]5)C=CC3=C4)c3ccccc32)CC1` [Clozapine-c-2-NB590]: the “NanoBRET Fold Response” value on DRD5 (DRD5, 0.1μM tracer) turned out to be 0.98; at DRD5 (DRD5, 1μM tracer) it was 1.16; at FZD7 (FZD7, 0.1μM tracer) it was 0.98; on FZD7 (FZD7, 1μM tracer) it was 1.00; at FSHR (FSHR, 0.1μM tracer), 1.02; on FSHR (FSHR, 1μM tracer), 1.05. Besides, the “NanoBRET Fold Response” value was 0.96 on RXFP4 (RXFP4, 0.1μM tracer) and 1.04 at RXFP4 (RXFP4, 1μM tracer).
As to `N#CN=C(NCCCOc1cccc(CN2CCCCC2)c1)NCCNC(=O)CCOCCOCCOCCOCCNC(=O)CCc1ccc2n1[B-](F)(F)[N+]1=C(c3ccc[nH]3)C=CC1=C2` [Aminopotentidine-2-NB590], the “NanoBRET Fold Response” value at DRD5 (DRD5, tracer 0.1μM) was 1.02; on DRD5 (DRD5, tracer 1μM), 1.01; on FZD7 (FZD7, tracer 0.1μM), 0.94; at FZD7 (FZD7, tracer 1μM), 0.99; on FSHR (FSHR, tracer 0.1μM), 0.99; at FSHR (FSHR, tracer 1μM) it was 1.06. In addition, the “NanoBRET Fold Response” value on RXFP4 (RXFP4, tracer 0.1μM) is 1.02; at RXFP4 (RXFP4, tracer 1μM) it was 1.02.
`COc1ccc2c(n1)c(CCNC(C)=O)cn2CCNC(=O)CCc1ccc2n1[B-](F)(F)[N+]1=C(c3ccc[nH]3)C=CC1=C2` [Azamelatonin-1-NB590]: the “NanoBRET Fold Response” value at DRD5 (0.1μM tracer) was 0.97; on DRD5 (1μM tracer), 0.96; at FZD7 (0.1μM tracer), 1.11; at FZD7 (1μM tracer) it was 1.11; at FSHR (0.1μM tracer), 1.08; on FSHR (1μM tracer) it was 1.08. Further, the “NanoBRET Fold Response” value is given as 0.73 at RXFP4 (0.1μM tracer) and 1.04 at RXFP4 (1μM tracer).
Consider `CC(C)N(CC[C@H](c1ccccc1)c1cc(CCNC(=O)c2ccc(CNC(=O)CCc3ccc4n3[B-](F)(F)[N+]3=C(c5ccc[nH]5)C=CC3=C4)cc2)ccc1O)C(C)C` [Tolterodine-BZ-NB590], for which the “NanoBRET Fold Response” value at DRD5 (DRD5, tracer 0.1μM) amounted to 1.02; on DRD5 (DRD5, tracer 1μM), 1.18; at FZD7 (FZD7, tracer 0.1μM), 1.04; on FZD7 (FZD7, tracer 1μM) it was 1.06; on FSHR (FSHR, tracer 0.1μM), 1.08; on FSHR (FSHR, tracer 1μM), 1.09. Besides, the “NanoBRET Fold Response” value on RXFP4 (RXFP4, tracer 0.1μM) was determined as 1.08; at RXFP4 (RXFP4, tracer 1μM), 0.98.
With `O=C(CCc1ccc2n1[B-](F)(F)[N+]1=C(c3ccc[nH]3)C=CC1=C2)NCCOCCOCCNC(=O)OCCOCCN1CCN(C2=Nc3ccccc3Sc3ccccc32)CC1` [Quetiapine-a-2-NB590], the “NanoBRET Fold Response” value on DRD5 (DRD5, tracer 0.1μM) was 1.09; on DRD5 (DRD5, tracer 1μM), 1.43; on FZD7 (FZD7, tracer 0.1μM), 1.04; on FZD7 (FZD7, tracer 1μM), 0.91; on FSHR (FSHR, tracer 0.1μM), 0.89; on FSHR (FSHR, tracer 1μM), 1.07. For the same molecule, the “NanoBRET Fold Response” value is given as 1.02 on RXFP4 (RXFP4, tracer 0.1μM) and 0.68 on RXFP4 (RXFP4, tracer 1μM).
Take `Cc1cc2c(s1)Nc1ccccc1N=C2N1CCN(CCCNC(=O)CCOCCOCCOCCOCCNC(=O)CCc2ccc3n2[B-](F)(F)[N+]2=C(c4ccc[nH]4)C=CC2=C3)CC1` [Olanzapine-a-2-NB590]: the “NanoBRET Fold Response” value on DRD5 (DRD5, tracer 0.1μM) is 1.20; at DRD5 (DRD5, tracer 1μM), 2.53; at FZD7 (FZD7, tracer 0.1μM), 1.03; at FZD7 (FZD7, tracer 1μM), 0.95; on FSHR (FSHR, tracer 0.1μM), 1.10; on FSHR (FSHR, tracer 1μM), 0.99. For the same molecule, the “NanoBRET Fold Response” value on RXFP4 (RXFP4, tracer 0.1μM) turned out to be 0.95; on RXFP4 (RXFP4, tracer 1μM), 0.91.
